According to US20240010606A1, “FUMARATE DERIVATIVES AND THEIR MEDICAL USE” (Sitryx Therapeutics Limited, priority 2020, published 2024):

Columns and labels:
IL-1β = experiment: THP-1 AlphaLISA IL-1β cytokine assay; format: cell-based; conditions: Homo sapiens, differentiated THP-1 cells
In short: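 THP-1 cells differentiated 72 h with PMA, pre-incubated 30 min with compounds, stimulated 24 h with LPS, then 1 h with nigericin, all at 37 °C. Supernatant cytokine measured by AlphaLISA; % inhibition normalised to ±LPS controls and IC50 taken from concentration-response curves.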

IL-6 = experiment: THP-1 AlphaLISA IL-6 cytokine assay; format: cell-based; conditions: Homo sapiens
Experimental: Biological Example 1—THP-1 AlphaLISA IL-1β and IL-6 Cytokine Assay Measuring Inhibitory Effects on IL-1, and IL-6 Cytokine Output from THP-1s The cytokine inhibition profiles of compounds of formula (I) were determined in a differentiated THP-1 cell assay. All assays were performed in RPMI-1640 growth medium (Gibco), supplemented with 10% fetal bovine serum (FBS; Gibco), 1% penicillin-streptomycin and 1% sodium pyruvate unless specified otherwise. The IL-1β and IL-6 cytokine inhibition assays were each run in a background of differentiated THP-1 cells as described below. All reagents described were from Sigma-Aldrich unless specified otherwise. Compounds were prepared as 10 mM DMSO stocks. THP-1 cells were expanded as a suspension up to 80% confluence in appropriate growth medium. Cells were harvested, suspended, and treated with an appropriate concentration of phorbol 12-myristate 13-acetate (PMA) over a 72 hr period (37° C./5% CO2). Following 72 hrs of THP-1 cell incubation, cellular medium was removed and replaced with fresh growth media containing 1% of FBS. Working concentrations of compounds were prepared separately in 10% FBS treated growth medium and pre-incubated with the cells for 30 minutes (37° C./5% CO2). Following the 30 minute compound pre-incubation, THP-1s were treated with an appropriate concentration of LPS and the THP-1s were subsequently incubated for a 24 hr period (37° C./5% CO2). An appropriate final concentration of Nigericin was then dispensed into the THP-1 plates and incubated for 1 hour (37° C./5% CO2) before THP-1 supernatants were harvested and collected in separate polypropylene 96-well holding plates. Reagents from each of the IL-1β and IL-6 commercial kits (Perkin Elmer) were prepared and run according to the manufacturer's instructions. Subsequently, fluorescence signal detection in a microplate reader was measured (EnVision® Multilabel Reader, Perkin Elmer). Percentage inhibition was calculated per cytokine by normalizing the sample data to the high and low controls used within each plate (+/−LPS respectively). Percentage inhibition was then plotted against compound concentration and the 50% inhibitory concentration (IC50) was determined from the resultant concentration-response curve.

NRF2 = NRF2 activation assay (DiscoverX PathHunter NRF2 translocation kit, U2OS cells); format: cell-based
In short: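 PathHunter U2OS cells, grown 24 h at 37 °C/5% CO2, treated 6 h with compound; NRF2 nuclear translocation read as enzyme-fragment-complementation chemiluminescence. Activation normalised to dimethyl fumarate high and untreated low controls; EC50 from concentration-response curve.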

[1] = Hepatocyte stability assay, human; format: in vitro ADME; conditions: cryopreserved hepatocytes, 10 μM compound
In short: (§1)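 Cryopreserved hepatocytes (viability >70%) at 0.5×10^6 cells/mL in Leibovitz buffer, preincubated 10 min at 37 °C, then compound at 10 μM (0.1% DMSO) in duplicate; buffer-only incubations as control. Samples at 0-60 min quenched in acetonitrile, analysed by LC-MS/MS; half-life and CLint (μL min^−1 10^−6 cells) from ln % remaining versus time.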

hepatocytes [2] = experiment: Hepatocyte stability assay, human; format: in vitro ADME; conditions: 10 μM compound
In short: as §1

[3] = Hepatocyte stability assay, mouse; format: in vitro ADME; conditions: mouse, cryopreserved hepatocytes, 10 μM compound
In short: as §1

hepatocytes [4] = experiment: Hepatocyte stability assay, mouse; format: in vitro ADME; conditions: 10 μM compound
In short: as §1

[5] = Table 2, compounds of formula (II)
[6] = THP-1, differentiated THP-1 cells, Table 2, compounds of formula (II)
[7] = +GSH, Table 4, compounds of formula (II)
[8] = −GSH, Table 4, compounds of formula (II)
[9] = THP-1, differentiated THP-1 cells, LPS then Nigericin, Table 1

Compound	IC50 (IL-1β; [5]) [µM]	IC50 (IL-6; [6]) [µM]	EC50 (NRF2; [7]) [µM]	NRF2 activation Emax (NRF2; [7])	EC50 (NRF2; [8]) [µM]	NRF2 activation Emax (NRF2; [8])	half-life at 10 μM ([1]; Table 6, read-out: T½) [min]	CIint (hepatocytes [2]; Table 6)	half-life at 10 μM ([3]; Table 6, read-out: T½) [min]	CIint (hepatocytes [4]; Table 6)	other results
O=C(O)/C=C/C(=O)OC1(c2ccc(C(F)(F)F)cc2)CC1 [Intermediate 38, (E)-4-oxo-4-(1-(4-(trifluoromethyl)phenyl)cyclopropoxy)but-2-enoic acid]	< 6	6 to 30	< 23	+ (+ means >50-<87%)	< 23	++++ (++++ means >150%)	30 to 100	+++ (+++ means >15-30)	5 to 29	++ (++ means >30-110)	–
O=C(O)/C=C/C(=O)OC1(c2ccc(C(F)(F)F)cc2)CCC1 [Intermediate 3, (E)-4-oxo-4-(1-(4-(trifluoromethyl)phenyl)cyclobutoxy)but-2-enoic acid]	< 6	–	< 23	+++ (+++ means >114-150%)	< 23	+++ (+++ means >114-150%)	> 100	++++ (++++ means 5-15)	30 to 100	+++ (+++ means >15-30)	IC50 (IL-6; differentiated THP-1 cells, Table 2, compounds of formula (II)): < 6 µM
O=C(O)/C=C/C(=O)OC1(c2ccc(C(F)(F)F)c(F)c2)CCC1 [Intermediate 16, (E)-4-(1-(3-fluoro-4-(trifluoromethyl)phenyl)cyclobutoxy)-4-oxobut-2-enoic acid]	< 6	< 6	< 23	+++ (+++ means >114-150%)	< 23	++++ (++++ means >150%)	> 100	+++ (+++ means >15-30)	30 to 100	+++ (+++ means >15-30)	–
C[C@H](OC(=O)/C=C/C(=O)O)c1ccc(C(F)(F)F)cc1 [Intermediate 19, (S,E)-4-oxo-4-(1-(4-(trifluoromethyl)phenyl)ethoxy)but-2-enoic acid]	6 to 30	6 to 30	< 23	+++ (+++ means >114-150%)	< 23	++++ (++++ means >150%)	> 100	++++ (++++ means 5-15)	5 to 29	++ (++ means >30-110)	–
C[C@H]1C[C@](OC(=O)/C=C/C(=O)O)(c2ccc(C(F)(F)F)cc2)C1 (single isomer, unassigned) [Intermediate 33, (E)-4-((cis)-3-methyl-1-(4-(trifluoromethyl)phenyl)cyclobutoxy)-4-oxobut-2-enoic acid]	< 6	< 6	–	–	–	–	> 100	++++ (++++ means 5-15)	30 to 100	+++ (+++ means >15-30)	–
O=C(O)COC(=O)/C=C/C(=O)OC1(c2ccc(C(F)(F)F)cc2)CCC1 [Example 15, (E)-2-((4-oxo-4-(1-(4-(trifluoromethyl)phenyl)cyclobutoxy)but-2-enoyl)oxy) acetic acid]	–	–	–	–	–	–	–	–	–	–	IC50 (IL-1β; LPS then Nigericin, Table 1): < 2.5 µM; IC50 (IL-6; [9]): 2.5 to 6.1 µM; EC50 (NRF2; +GSH, Table 3): > 100 µM; NRF2 activation Emax (NRF2; +GSH, normalised to dimethyl fumarate high control, Table 3): + (+ means >17.1-99); EC50 (NRF2; −GSH, Table 3): 2.1 to 6 µM; NRF2 activation Emax (NRF2; −GSH, normalised to dimethyl fumarate high control, Table 3): +++ (+++ means 150-199%); half-life at 10 μM ([1]; Table 5, read-out: T½): 5 to 29 min; CIint (hepatocytes [2]; Table 5): +++ (+++ means 50-149); half-life at 10 μM ([3]; Table 5, read-out: T½): < 5 min; CIint (hepatocytes [4]; Table 5): + (+ means >277)
O=C(O)/C=C/C(=O)OC1(c2ccc(C(F)(F)F)c(Cl)c2)CCC1 [Intermediate 26, (E)-4-(1-(3-chloro-4-(trifluoromethyl)phenyl)cyclobutoxy)-4-oxobut-2-enoic acid]	< 6	< 6	< 23	++ (++ means >87-114%)	< 23	+++ (+++ means >114-150%)	30 to 100	+++ (+++ means >15-30)	30 to 100	++ (++ means >30-110)	–
O=C(O)/C=C/C(=O)OC1(c2cc(F)c(C(F)(F)F)c(F)c2)CCC1 [Intermediate 29, (E)-4-(1-(3,5-difluoro-4-(trifluoromethyl)phenyl)cyclobutoxy)-4-oxobut-2-enoic acid]	< 6	< 6	–	–	–	–	> 100	++++ (++++ means 5-15)	30 to 100	+++ (+++ means >15-30)	–
O=C(O)/C=C/C(=O)OC1(c2ccc(C(F)(F)F)cc2)CSC1 [Intermediate 17, (E)-4-oxo-4-((3-(4-(trifluoromethyl)phenyl)thietan-3-yl)oxy)but-2-enoic acid]	6 to 30	6 to 30	–	–	–	–	5 to 29	++ (++ means >30-110)	5 to 29	+ (+ means >110-277)	–
O=C(O)/C=C/C(=O)OC1(c2ccc(C(F)(F)F)cc2)CC(F)(F)C1 [Intermediate 32, (E)-4-(3,3-difluoro-1-(4-(trifluoromethyl)phenyl)cyclobutoxy)-4-oxobut-2-enoic acid]	< 6	< 6	–	–	–	–	30 to 100	+++ (+++ means >15-30)	30 to 100	+++ (+++ means >15-30)	–
O=C(O)CCOC(=O)/C=C/C(=O)OC1(c2ccc(C(F)(F)F)cc2)CCC1 [Example 16, (E)-3-(4-oxo-4-(1-(4-(trifluoromethyl)phenyl)cyclobutoxy)but-2-enoyloxy)propanoic acid]	–	–	–	–	–	–	–	–	–	–	IC50 (IL-1β; LPS then Nigericin, Table 1): 2.5 to 6.1 µM; IC50 (IL-6; [9]): < 2.5 µM; half-life at 10 μM ([1]; Table 5, read-out: T½): 5 to 29 min; CIint (hepatocytes [2]; Table 5): +++ (+++ means 50-149); half-life at 10 μM ([3]; Table 5, read-out: T½): < 5 min; CIint (hepatocytes [4]; Table 5): + (+ means >277)
